Results on 1 compound are retold here after patent US6063783A, “Analgesic use of triazolo-pyridazine derivatives” (Merck Sharp & Dohme Ltd., priority 1997, dated 2000).

Data set [1] concerns carrageenan-induced hyperalgesia. In words: rat carrageenan-induced hyperalgesia assay. In kind it is in vivo. As to conditions: male Sprague Dawley rats, oral, given 2 h after carrageenan, mechanical thresholds at 3 h, read-out: ID50, inhibition of carrageenan-induced hyperalgesia. The procedure:
Carrageenan-induced hyperalgesia
Male Sprague Dawley rats (100-120 g) received an intraplantar injection of carrageenan (4.5 mg) and mechanical thresholds were determined 3 h later using a modified Ugo Basile Algesiometer. Control rats received saline (0.15 ml i.pl.). Hyperalgesia was defined as the difference in vocalisation threshold for saline- and carrageenan-injected rats. Paw pressure scores for drug-treated rats were expressed as a percentage of this response. Compound A (1, 3 or 10 mg/kg) or vehicle were administered 2 h after carrageenan.
(§1) Compound A was suspended in 0.5% methocel and administered orally. Doses refer to the free base.

For another data set, the system named is chain pulling. The data set can be described thus: chain pulling (sedation) in rats. In kind it is in vivo, rat. As to conditions: food-deprived P.V.G. rats; oral doses of up to 100 mg/kg; chain pulls recorded for up to 60 min. On the procedure: Response sensitivity training and testing was carried out in standard operant conditioning chambers. Each chamber was equipped with a chain suspended from the centre of the ceiling and connected to a micro switch. Food pellets were delivered into a food magazine positioned at floor level in the centre of the front wall. Food-deprived P.V.G. rats (280-380 g) were trained to pull a chain for access to food pellets according to a random interval (RI) 30 s schedule. Animals received Compound A at 1, 3, 10, 30 or 100 mg/kg or vehicle and the number of chain pulls recorded for up to 60 min. Response rates for drug-treated animals are then expressed as a percentage of response rates for vehicle-treated rats.
as §1

Turning to `Cn1ncnc1COc1nn2c(-c3ccccc3)nnc2cc1N1CCCC1` [Compound A, 6-(2-methyl-2H-1,2,4-triazol-3-ylmethoxy)-3-phenyl-7-(pyrrolidin-1-yl)-1,2,4-triazolo[4,3-b]pyridazine], the ED50 in data set [1] was 5.3 mg/kg. Moreover, in the data set on chain pulling, the “effects on chain pulling (sedation)” value was “no effects”.
